# Assay results as given in patent US20050203011A1, “Mitigating symptoms and behaviors of substance abuse by modulating GDNF or BDNF pathway activity” (The Regents of the University of California, priority 2003, published 2005).
# Legend:
# ERK1/2 = ERK1/2 phosphorylation in SHSY5Y cells; type: cell-based, human; settings: 10 μM ibogaine
# Description: ERK2 and pERK1/2 were detected by Western blot analysis with anti-ERK2 and pERK1/2 antibodies respectively. Line-graph depicts the mean ratio (pERK2/ERK2)±SD of 3 experiments. […] Panel C: Cells were pre-incubated with 0.3 unit/ml PI-PLC for 1 h (lane 3).
# Male Long Evans rats = test: Ethanol and sucrose self-administration in the two-bottle preference test; type: in vivo, rat; settings: ibogaine i.p.
# Text: Male Long Evans rats were allowed continuous access to two bottles, one containing 10% ethanol (10 E) in tap water and the other containing tap water. […] Each subject received each dose, with one injection per week. Next, subjects were exposed to 2 bottles, one containing 10% sucrose (10 S) in tap water and the other containing tap water.
# GDNF [1] = test: GDNF expression in SHSY5Y cells (RT-PCR); type: cell-based, human
# Description: SHSY5Y human neuroblastoma cells were grown in Dulbecco's modified Eagle's medium (DMEM) containing 10% fetal bovine serum (FBS) plus 100 units/ml penicillin and 100 μg/ml streptomycin. Prior to experiments, the medium was replaced with DMEM containing 1% FBS.
# Total RNA was isolated using Trizol reagent and reverse transcribed using Reverse Transcription System kit with the oligo (dT)15 primer at 42ûC for 30 minutes. GDNF, Actin or GPDH expressions were analyzed by RT-PCR. The GDNF primers were based on the coding frame of the human GDNF gene: upstream, 5′-TGCCAGAGGATTATCCTGATCAGTTCG ATG3′ (SEQ ID NO: 1); and downstream, 5′-TTGTCGTACGTTGTCTCAGCTGCATCGCAA-3′ (SEQ ID NO:2). The Actin primers were based on the human Actin gene: upstream, 5′-TCATGAAGTGTGACGTTGACATC-3′ (SEQ ID NO:3); and downstream, 5′-AGAAGCATTTGCGGTGGACGATG-3′ (SEQ ID NO:4). The GPDH primers were based on the rat GPDH gene: upstream, 5′-TGAAGGTCGGTGTCAACGGATTTGGC-3′ (SEQ ID NO:5); and downstream, 5′-CATGTAGGCCATGAGGTCCACCAC-3′ (SEQ ID NO:6). […]
# After completion of PCR, 10 μl of each product was separated by 1.8% agarose gel in Tris/acetic acid/EDTA buffer with 0.25N^og/ml ethidium bromide, photographed by Eagle Eye II (Stratagene), and quantified by NIH Image 1.61.
# GDNF [2] = test: GDNF expression in the midbrain after i.p. ibogaine (RT-PCR), rats; type: in vivo, rat; settings: 40 mg/kg i.p., 1, 6 or 12 h post injection
# Description: Total RNA was isolated using Trizol reagent and reverse transcribed using Reverse Transcription System kit with the oligo (dT)15 primer at 42ûC for 30 minutes. GDNF, Actin or GPDH expressions were analyzed by RT-PCR. The GDNF primers were based on the coding frame of the human GDNF gene: upstream, 5′-TGCCAGAGGATTATCCTGATCAGTTCG ATG3′ (SEQ ID NO: 1); and downstream, 5′-TTGTCGTACGTTGTCTCAGCTGCATCGCAA-3′ (SEQ ID NO:2). The Actin primers were based on the human Actin gene: upstream, 5′-TCATGAAGTGTGACGTTGACATC-3′ (SEQ ID NO:3); and downstream, 5′-AGAAGCATTTGCGGTGGACGATG-3′ (SEQ ID NO:4). The GPDH primers were based on the rat GPDH gene: upstream, 5′-TGAAGGTCGGTGTCAACGGATTTGGC-3′ (SEQ ID NO:5); and downstream, 5′-CATGTAGGCCATGAGGTCCACCAC-3′ (SEQ ID NO:6). PCR conditions were optimized to specifically ensure that the amplification reactions are within the linear range by testing a range of 25-40 PCR cycles. The optimal numbers of cycles used were: 30 cycles for controls GPDH and actin and 35 cycles for GDNF.
# Male C57B16 mice or Long Evans rats were habituated with 3 saline injections over 3 days followed by i.p. administration of 40 mg/kg ibogaine-HCl. The animals were sacrificed 1, 6 or 12 hours post injection, and brain regions were excised and stored at −80° C. until use for analysis of GDNF expression by RT-PCR.
# rats [3] = test: VTA microinjection of ibogaine, ethanol operant self-administration; type: in vivo, rat
# Description: After ethanol self-administration was established as described above, subjects attained a mean daily intake of ethanol of 0.62±0.07 g/kg. Bilateral guide cannula (26 gauge, Plastics One) were implanted into the VTA (5.6 mm posterior to bregma, 1.0 mm mediolateral, 8.0 mm ventral to the skull surface). After 7 to 10 days recovery, sham injections were conducted prior to ethanol self-administration sessions to habituate subjects to the microinjection procedure. […] Injection cannulae were left in place for an additional 2 minutes to allow for diffusion of the drug. Three, 24 and 48 hours post injection, rats were placed into the self-administration chambers for a 1-hour self-administration session.
# rats [4] = test: Ethanol reinstatement after extinction, systemic ibogaine; type: in vivo, rat; settings: 40 mg/kg i.p., 3 hours before test
# Text: The eight rats used in the operant self-administration study were also used to study ethanolseeking after a period of extinction. Following a period of stable responding for ethanol, rats underwent extinction in which no ethanol was delivered following active lever responses.
# DBA mice = test: Conditioned place preference test (CPP); type: in vivo, mouse; settings: ibogaine 40 mg/kg i.p. during CPP acquisition, before expression, or both
# Description: The CPP apparatus (Med Associates) consisted of two visually distinctive conditioning compartments connected by a smaller center compartment. The CPP procedure consisted of three phases: preconditioning (Day 1), conditioning (Days 2-9), and post-conditioning (Day 10). On Day 1, mice were placed into the center compartment and allowed free access to both conditioning compartments for 30 minutes. […] Mice were given access to one conditioning chamber for 5 minutes immediately after injection or 3 h after injection. […] Control subjects received saline in both conditioning chambers. […] Ethanol treatment was followed by placement within one conditioning chamber, alternated with saline treatment and placement into the other conditioning chamber, as described above. On Day 10, animals were tested for CPP by allowing free access to both conditioning compartments for 30 minutes. Photocell counts provided a measure of locomotor activity as well as time spent in each compartment
# rats [5] = test: Intra-VTA minipump infusion of anti-GDNF neutralizing antibodies, ethanol self-administration after ibogaine; type: in vivo, rat; settings: 3 hours after ibogaine 40 mg/kg i.p., control subjects (intra-VTA mouse IgG)
# Description: An osmotic minipump (Alzet) was then connected to each of the two guide cannulae and was implanted subcutaneously for continuous infusion of either anti GDNF neutralizing antibodies (600 ng/12 N^ol/side/day) or mouse IgG (600 ng/12 μl/side/day).
# rats [6] = test: Ethanol operant self-administration after systemic ibogaine; type: in vivo, rat; settings: 40 mg/kg i.p., 3 hours prior to session
# Text: Rats were water restricted, and then trained to lever press for a 10 S/10 E reinforcer solution in 3 overnight sessions. On the 4th day, rats were allowed ad libitum access to water in the home cage, and were transferred to 1-hour daily sessions wherein responses were reinforced with 5 S/10 E on a fixed-ratio 3 (FR3) schedule. Sucrose was phased out of the reinforcer solution over the next 7 days until the solution consisted of 10 E only. Experimental manipulations began after 30 sessions when stable 10 E intake of >0.4 g/kg ethanol was attained.
substance,measurement,setting,value
12-methoxyibogamine [ibogaine],duration of ERK1/2 activation,ERK1/2,up to 6 hours
same,phosphorylation of ERK1/2,ERK1/2,induced
same,ethanol intake,"Male Long Evans rats; continuous access to ethanol in home cage, measured 24 hours after injection",reduced
same,preference for ethanol,"Male Long Evans rats; continuous access, 24 hours after injection",reduced
same,duration of increase in GDNF expression,GDNF [1],up to 12 hours
same,GDNF expression,"GDNF [1]; 10 μM, dose- and time-dependent",increase
same,expression of GDNF in the midbrain,GDNF [2],increase
same,lever responding for ethanol,"rats [3]; intra-VTA 0.1 μM, any tested time point",did not differ from responding following vehicle
same,"lever presses for ethanol, return to baseline",rats [3]; intra-VTA 10 μM,did not return to baseline levels within 48 hours
same,lever responding for ethanol,"rats [3]; intra-VTA 10 μM, 3, 24 and 48 hours, vs vehicle",significantly reduced responding at all time points
same,ethanol-paired lever pressing,"rats [3]; intra-VTA 0.1, 1.0 and 10.0 μM/0.5 μl, 3 hours before session, dose-dependent",significantly decreased
same,reinstatement of lever pressing for ethanol,rats [4],reduced
same,rewarding properties of ethanol (ethanol-induced CPP),DBA mice,not altered
same,decrease in responding for ethanol,rats [5],79.1%
same,responding at the ethanol-paired lever,rats [6],decreased
